{
  "source": "patent US20170165286A1",
  "about": "“COMPOSITIONS AND METHODS FOR TREATING DIABETES AND LIVER DISEASES” (Cempra Pharmaceuticals, Inc., priority 2014, published 2017)",
  "key": {"[1]": {"assay": "QT / tQT effects and plasma levels", "type": "in vivo", "excerpt": "The compounds described herein, including solithromycin, are effective in treating host animals with high cardiovascular disease risk."}, "[2]": {"assay": "Phase 1 study in subjects with hepatic impairment: safety", "type": "in vivo, humans", "conditions": "for Number of subjects reporting treatment-emergent AEs: 800 mg Day 1, 400 mg Days 2-5", "protocol": "Safety of solithromycin in humans with hepatic insufficiency.\nSafety and Pharmacokinetics of solithromycin in Subjects with Hepatic Impairment. The safety, pharmacokinetics (PK), and protein binding of solithromycin was evaluated in subjects with mild, moderate, and severe hepatic impairment compared to healthy subjects with normal hepatic function (matched for age, weight, and gender). The evaluation was performed in a Phase 1, open-label, multiple-dose study in subjects with mild (Child-Pugh Class A), moderate (Child-Pugh Class B), and severe (Child-Pugh Class C) hepatic impairment and healthy matched control subjects with normal hepatic function. All subjects received a once-daily dose of 800 mg on Day 1 followed by 400 mg on Days 2 through 5.\n33 subjects were enrolled: 8 with mild impairment (mean Child-Pugh score 5.625), 8 with moderate impairment (mean Child-Pugh score 7.375), 8 with severe impairment (mean Child-Pugh score 10.625), and 9 healthy controls with normal hepatic function. One subject, a healthy control, discontinued study drug after 2 doses due to a rash; all other subjects (n=32) completed the study. Overall, the number of subjects reporting treatment-emergent AEs in the hepatic impaired cohorts (mild n=1, moderate n=4, severe n=4) was no greater than in the control group (n=4)."}, "human FXR": {"tested_on": "human FXR", "assay": "FXR reporter cell assays (agonist and antagonist)", "type": "cell-based", "conditions": "reporter cells, from 30 μM, 1:3 dilutions", "protocol": "FXR Signal Pathway. […] Solithromycin is tested in reporter cell assays expressing a hybrid FXR receptor (Indigo Biosciences, PA). Agonist and antagonist activity is measured. Solithromycin is tested starting at 30 μM and continuing with 1:3 dilutions. […] Without being bound by theory, it is believed herein that dependence upon the FXR pathway for activity in treating the diseases described herein may lead to increased triglycerides (TGs) and low density lipids (LDL) as an unwanted side effects. For example, patients with various forms of FLD may be at risk for cardiovascular disease, which may be aggravated by increased triglycerides and low density lipids."}, "STAM mice": {"tested_on": "STAM mice", "assay": "STAM model: liver immunohistochemistry (F4/80, Gr-1, CK-18)", "type": "in vivo", "conditions": "for F4/80-positive area (%) a measure of macrophage density: STAM mice liver", "protocol": "NASH-HCC (STAM™) Model. C57BL/6 (15-day-pregnant female) mice are obtained from Charles River Laboratories Japan (Kanagawa, Japan). Male pups are selected for the study. NASH is induced in male mice by a single subcutaneous injection of 200 μg streptozotocin (STZ, Sigma-Aldrich, USA) solution 2 days after birth, followed by feeding a HFD (57 kcal % fat, cat#: HFD32, CLEA Japan, Japan) beginning at 4 weeks of age. At 5 weeks of age, mice are divided into a control group and one or more treated group (generally 8 mice per group). Animals are sacrificed at 9 weeks of age, and biochemical, histological, and gene expression analyses are performed.\nDuring weeks 5-9 (starting at day 35±2), test compound is administered (generally orally) at various doses diluted to 10 mL/kg and according to various dosing protocols to treatment groups (8 mice each) while a second group (8 mice) is administered vehicle only. Animals are sacrificed at 9 weeks.\nFor immunohistochemistry (a measure of inflammation), sections are cut from frozen liver tissues embedded in Tissue-Tek O.C.T. compound and fixed in acetone. Endogenous peroxidase activity is blocked using 0.03% H2O2 for 5 minutes, followed by incubation with Block Ace (Dainippon Sumitomo Pharma, Japan) for 10 minutes. The sections were incubated with a 200-fold dilution of anti-F4/80 antibody (BMA Biomedicals, Switzerland), a 50-fold dilution of anti-CK-18 antibody (LifeSpan BioSciences, USA) or anti-Gr-1 antibody (culture supernatant) over night at 4° C. F4/80 is a marker for macrophage and Kupffer cells in the liver; CK-18 antibody measures the cytoskeleton in damaged hepatocytes; and anti-Gr-1 antibody measures the neutrophil response. After incubation with secondary antibody (HRP-Goat anti-rat antibody, Invitrogen, USA), enzyme-substrate reactions are performed using 3, 3′-diaminobenzidine/H2O2 solution (Nichirei, Japan).\nFor quantitative analysis of fibrosis area, bright field images of Sirius red-stained sections are captured around the central vein using a digital camera (DFC280; Leica, Germany) at 200-fold magnification, and the positive areas in 5 fields/section are measured using ImageJ software (National Institute of Health, USA). For quantitative analysis of inflammation area, bright field images of F4/80-immunostained sections are captured around the central vein using a digital camera (DFC280; Leica, Germany) at 200-fold magnification, and the positive areas in 5 fields/section are measured using ImageJ software (National Institute of Health, USA).\nIllustrative dose response test groups. Group 1-Normal. Eight normal mice are fed with a normal diet ad libitum without any treatment until 9 weeks of age. Group 2-Vehicle. Eight NASH mice are orally administered vehicle (0.5% w/v methylcellulose+0.2% Tween®80) in a volume of 10 mL/kg twice daily from 5 to 9 week of age. Group 3-solithromycin 5 mg/kg. Eight NASH mice are orally administered vehicle supplemented with solithromycin at a dose of 5 mg/kg in the morning and the vehicle in the evening (5 mg/kg/day) from 5 to 9 weeks of age. Group 4-solithromycin 10 mg/kg. Eight NASH mice are orally administered vehicle supplemented with solithromycin at a dose of 10 mg/kg twice daily (20 mg/kg/day) from 5 to 9 weeks of age. Group 5-solithromycin 25 mg/kg. Eight NASH mice are orally administered vehicle supplemented with solithromycin at a dose of 25 mg/kg twice daily (50 mg/kg/day) from 5 to 9 weeks of age. Group 6-solithromycin 50 mg/kg. Eight NASH mice are orally administered vehicle supplemented with solithromycin at a dose of 50 mg/kg once daily (50 mg/kg/day) from 5 to 9 weeks of age."}},
  "note": "Entries after “also recorded” stand apart in the source; their conditions may differ.",
  "data": [
    {"smiles": "CC[C@H]1OC(=O)[C@@](C)(F)C(=O)[C@H](C)[C@@H](O[C@@H]2O[C@H](C)C[C@H](N(C)C)[C@H]2O)[C@](C)(OC)C[C@@H](C)C(=O)[C@H](C)[C@H]2N(CCCCn3cc(-c4cccc(N)c4)nn3)C(=O)O[C@]12C", "note": "[solithromycin]", "values": [
      {"measurement": "Plasma levels achieved", "setting": "[1]; PK analysis in QT evaluation", "value": "2000 to 3000", "unit": "ng/mL"},
      {"measurement": "QT or tQT prolongation", "setting": "[1]; dosed orally or intravenously", "value": "does not show any QT or tQT prolongation"},
      {"measurement": "Most commonly reported AEs", "setting": "[2]; all cohorts", "value": "mild diarrhea and mild headache"},
      {"measurement": "Mean changes from baseline in liver function tests on Day 8", "setting": "[2]; any cohort, after 5 days of administration", "value": "not clinically significant"},
      {"measurement": "ALT mean (±SD) change from baseline on Day 8", "setting": "[2]; control cohort", "value": "2.6±4.47", "unit": "IU/L"},
      {"measurement": "AST mean (±SD) change from baseline on Day 8", "setting": "[2]; control cohort", "value": "−0.6±2.92", "unit": "IU/L"},
      {"measurement": "Direct bilirubin mean (±SD) change from baseline on Day 8", "setting": "[2]; control cohort", "value": "0.00 ± 0.053", "unit": "mg/dL"},
      {"measurement": "Number of subjects reporting treatment-emergent AEs", "setting": "[2]; healthy control group (9 enrolled)", "value": 4},
      {"measurement": "Safety compared to healthy controls", "setting": "[2]; humans with hepatic impairment, same doses", "value": "no significant differences in safety"},
      {"measurement": "Tolerability", "setting": "[2]; humans with mild, moderate and severe hepatic impairment, doses as high as 800 mg", "value": "well tolerated"},
      {"measurement": "ALT mean (±SD) change from baseline on Day 8", "setting": "[2]; mild hepatic impairment", "value": "4.0±8.00", "unit": "IU/L"},
      {"measurement": "AST mean (±SD) change from baseline on Day 8", "setting": "[2]; mild hepatic impairment", "value": "0.4±5.93", "unit": "IU/L"},
      {"measurement": "Direct bilirubin mean (±SD) change from baseline on Day 8", "setting": "[2]; mild hepatic impairment", "value": "0.00 ± 0.076", "unit": "mg/dL"},
      {"measurement": "Number of subjects reporting treatment-emergent AEs", "setting": "[2]; mild hepatic impairment (8 enrolled)", "value": 1},
      {"measurement": "ALT mean (±SD) change from baseline on Day 8", "setting": "[2]; moderate hepatic impairment", "value": "7.8±6.92", "unit": "IU/L"},
      {"measurement": "AST mean (±SD) change from baseline on Day 8", "setting": "[2]; moderate hepatic impairment", "value": "0.1±10.56", "unit": "IU/L"},
      {"measurement": "Direct bilirubin mean (±SD) change from baseline on Day 8", "setting": "[2]; moderate hepatic impairment", "value": "0.03 ± 0.046", "unit": "mg/dL"},
      {"measurement": "Number of subjects reporting treatment-emergent AEs", "setting": "[2]; moderate hepatic impairment (8 enrolled)", "value": 4},
      {"measurement": "ALT mean (±SD) change from baseline on Day 8", "setting": "[2]; severe hepatic impairment", "value": "6.3±14.61", "unit": "IU/L"},
      {"measurement": "AST mean (±SD) change from baseline on Day 8", "setting": "[2]; severe hepatic impairment", "value": "5.8±22.44", "unit": "IU/L"},
      {"measurement": "Direct bilirubin mean (±SD) change from baseline on Day 8", "setting": "[2]; severe hepatic impairment", "value": "0.04 ± 0.207", "unit": "mg/dL"},
      {"measurement": "Number of subjects reporting treatment-emergent AEs", "setting": "[2]; severe hepatic impairment (8 enrolled)", "value": 4},
      {"measurement": "Agonist activity", "setting": "human FXR; hybrid FXR receptor", "value": "not show agonistic activity"},
      {"measurement": "Antagonist activity", "setting": "human FXR; hybrid FXR receptor", "value": "nor significant antagonistic activity"},
      {"measurement": "Cytotoxicity in the antagonist assays", "setting": "human FXR", "value": "does not show evidence of cytotoxicity"},
      {"measurement": "F4/80-positive area (%) a measure of macrophage density", "setting": "STAM mice; 5 mg/kg", "value": "10.83 ± 1.38", "unit": "%"},
      {"measurement": "F4/80-positive area (%) a measure of macrophage density", "setting": "STAM mice; 10 mg/kg", "value": "9.33 ± 1.31", "unit": "%"},
      {"measurement": "F4/80-positive area (%) a measure of macrophage density", "setting": "STAM mice; 25 mg/kg", "value": "10.63 ± 2.11", "unit": "%"},
      {"measurement": "Area of F4/80-positive macrophages compared to vehicle group", "setting": "STAM mice; STAM mice, Groups 3-6", "value": "no significant differences"},
      {"measurement": "Gr-1 positive cells (neutrophil infiltration) in liver compared to vehicle group", "setting": "STAM mice; STAM mice, all doses", "value": "decreased; also recorded: reduced"},
      {"measurement": "CK-18 immunostaining compared to vehicle group", "setting": "STAM mice; STAM mice, any doses", "value": "no obvious changes"}
    ]}
  ]
}
